Assay results reported in PMC11788822, “Uncovering the potent antimicrobial activity of squaramide based anionophores – chloride transport and membrane disruption” (Chemical Science, 2025).
“And” between values parts separate entries of the source, which are not always exact repeats. Equal values may be shown once. Read-outs that look alike come from different tables or passages of the source. Marks after values point to notes of the source that are not given here.

What was measured:
[1] = Lucigenin Cl−/NO3− exchange assay in LUVs; conditions: Cl− transport, 0.4 mM POPC/cholesterol 7:3 LUVs, Hill fit at 270 s
Description: Given our objective was to use such transport behaviour as a method to disrupt anion homeostasis in bacteria, we also conducted anion transport assays in Large Unilamellar Liposomes (LUVs) using the well-established Lucigenin-based Cl^−/NO3^− exchange assay.[40] Briefly, LUVs containing the chloride sensitive dye lucigenin in a NaNO3 solution were prepared and a NaCl pulse was added to create a chloride concentration gradient. Upon addition of the putative transporter, the quenching of the fluorescence of lucigenin was monitored over time to assess Cl^− influx.
Lucigenin Cl-/NO3- anion exchange assay
LUV preparation and Lucigenin assays were carried out following procedures outlined by Valkenier and co-workers.8 Large unilamellar liposomes (LUVs) were synthesized using 1-palmitoyl-2-oleoyl-sn-glycero-3-phosphocholine (POPC)(11.2 µmol, soln. in CHCl3) and Cholesterol (4.8 µmol) mixed in a ratio of 7:3. This mixture was brought to dryness under gentle vacuum and subsequently, the mixture was rehydrated in an aqueous Lucigenin solution (1 mL, 0.8mM lucigenin in 225 mM NaNO3) and stirred for 1 h to obtain heterogeneous vesicles. After that, the vesicles underwent 9 freeze-thaw cycles and were extruded through a […] polycarbonate membrane 29 times to obtain monodisperse LUVs. A Sephadex G-100 size-exclusion column was employed to remove any unencapsulated lucigenin. The collected liposomes were diluted to 40 mL with 225 mM NaNO3 to obtain a homogeneous 0.4 mM liposome solution. Lucigenin fluorescence quenching was monitored in a time dependent manner using an Agilent Spectrofluorimeter to access Cl- influx (λ ex = 430 nm, λem = 505 nm).
Cl- transport behaviour was initiated at t=0 s by adding each compound as a solvate in DMSO followed by a 25 mM NaCl pulse (75µL, 1 M NaCl in […] NaNO3) to a 3 mL liposome solution. The data was collected for at least 600 s and then Triton X-100 (5% w/w in water) was added to lyse the liposomes, and normalize to 100% efflux. The recorded data was normalised and the fraction fluorescence intensity at 270 s of each tested concentration of transporters (mol%) was plotted against transporter concentration (mol%). The data obtained was fitted to the Hill equation to obtain the EC50 value at 270 s (the concentration to obtain the half maximum effect) by using Originlab 2024b or Graphpad Prism 10:
y = START + (END ‒ START) ∗ xn/(kn + xn)
Where n is the Hill coefficient, k presents the EC 50 value.

[2] = design: method as in doi:10.1021/jo01097a026; conditions: for the relevant substitution pattern; cited from earlier work
G. mellonella larvae = experiment: Galleria mellonella in vivo toxicity; conditions: larvae dosed at 10× IC50, monitored over 72 h
Description: Next, to assess the medicinal validity of compounds 1, 2, and 4 we investigated the in vivo toxicity of these compounds using the Galleria mellonella model organism. This model has been introduced as an alternative model to study microbial infections as it can be easily and inexpensively obtained and doesn't require specialised lab equipment or impose significant ethical constraints. […] Thus, G. mellonella larvae were dosed with a concentration of each compound at 10× IC50 and monitored for signs of toxicity or death over a 72 hour window.
Bacterial cultures were brought to early stationary phase overnight, in nutrient broth (containing 25/50 µg/mL Ampicillin for MRSA/K. pneumoniae, respectively) at 37 °C. Cultures were diluted to an OD600 = 0.01. Aliquots of Culture (100 µl) were added to 100 µL serially diluted compound (200 – 0.78 µM) in nutrient broth in a 96-well plate (Sarstedt, Germany).
Plates were incubated at 37 °C for 24 h and growth was measured at 600 nm, where growth was measured and represented relative to control.
Galleria mellonella toxicity studies
To ascertain inherent compound toxicity, 10 healthy G. mellonella larvae were selected and weighed ensuring to keep larval weight approx. 0.25 g (+ 0.05 g). This constituted one sample set for experiments. […] Larvae were subsequently monitored for up to […], for signs of toxicity, melanisation and death. […]
From an overnight culture brought to stationary phase (OD600 = ~1.0) was taken samples, brought to an OD600 = 0.2, which were treated with N-Ethoxycarbonylmethyl-6-methoxyquinolium Bromide (MQAE) (10 mM) for 1 h at 37 0C. […] 2 mL of samples were taken & transferred to a fluorescence cuvette, whereupon fluorescence was read (λexc = 350 nm (slit width = 5 nm) λem = 460 nm (slit width = 5 nm)) using a Cary Eclipse Fluorescence Spectrophotometer (Agilent Technologies). Subsequently samples were treated with the Compound of interest for 5 mins whereafter fluorescence was measured as previous, with intensity plotted relative to control, […]

[3] = design: method as in PMID 34709282; conditions: Cl− transport; Reported by Gale and co-workers; cited from earlier work

SMILES | EC50 (mol%) [1] | Hammett parameter (σ) [2] | signs of toxicity or death (G. mellonella larvae) | EC50 (mol%) [3]
O=c1c(Nc2cc(C(F)(F)F)cc(C(F)(F)F)c2)c(NC23CC4CC(CC(C4)C2)C3)c1=O [Compound 1] | 0.0836 mol% and 0.084 mol% | 0.86 | no appreciable signs of acute/chronic toxicity | –
O=c1c(Nc2ccc(Cl)c(Cl)c2)c(NC23CC4CC(CC(C4)C2)C3)c1=O [Compound 2] | 0.0993 mol% | 0.6 | no appreciable signs of acute/chronic toxicity | –
O=c1c(Nc2ccc([N+](=O)[O-])cc2)c(NC23CC4CC(CC(C4)C2)C3)c1=O [Compound 4] | – | 0.78 | no appreciable signs of acute/chronic toxicity | 0.031 ^a mol%
